Reference: patent US20210113522A1, “COUMARIN DERIVATIVE AS ANTI-ASTHMATIC AGENT, PHARMACEUTICAL COMPOSITION THEREOF, ITS PREPARATION AND USE” (I-NOVA MEDICINSKA ISTRAZIVANJA D.O.O., priority 2017, published 2021)

Assays:
[1] = MTT cytotoxicity / cell survival in murine fibroblast line L929; type: cell-based; details: mouse; L929, 48 h; read-out: CC50 (cytotoxic concentration for 50% cells)
Description: (§1) Cytotoxicity of compound 1 was determined through the study of cell growth and viability by the methods of determination of maximal non-toxic concentration (MNC) and concentration required for cell viability by 50% (CC50). […] Cytotoxic concentration at 50% (CC50) was defined as the concentration of the test substance 1 at which 50% of the cells die as a result of toxicity of the test substance.
(§2) Evaluation of cytotoxicity was an important part of the assessment of anti-asthmatic activity of compound 1 since its beneficial therapeutic effect at asthma and other inflammatory respiratory diseases should be selective with little or no effects on the metabolism of host cells. The study of cytotoxicity of compound 1 was performed on two types of cell lines of murine fibroblasts L20B and L929 from European collection of cell cultures (ECACC).
(§3) Cell viability was estimated by a modification of the 3-(4,5-dimethylthiazol-2-yl)-2,5-diphenyltetrazolium bromide (MTT) assay which is one of the most frequently used methods for measuring cell proliferation and cytotoxicity; see literature reference 12: • 12) T. Mosmann: Rapid colorimetric assay for cellular growth and survival: Application to proliferation and cytotoxicity assays, J. Immunol. Methods 65 (1983) 55-63.
(§4) Cell viability was reported as the percentage (%) of viable cells in the wells treated with different concentrations of the test compound 1, compared to the control cells untreated with the substance. Maximal non-toxic concentration (MNC) and cytotoxic concentration for 50% of cells (CC50) were calculated from the constructed “dose-cellular survival” curve.
(§5) Cytotoxicity of compound 1 was determined through the study of cell growth and viability by the methods of determination of maximal non-toxic concentration (MNC) and concentration required for cell viability by 50% (CC50).
(§6) The compound 1 (Mw=410.02) under study were first dissolved in DMSO (Sigma-Aldrich) to a concentration of 0.1 mol/L (0.1 M) as a stockade later diluted in cell growth medium Dulbecco's Modified Eagle Medium (DMEM; Sigma-Aldrich) with 2% heat inactivated fetal bovine serum.
(§7) The study of cytotoxicity of compound 1 was performed on two types of murine fibroblasts cell lines: L20B and L929 from European collection of cell cultures (ECACC). Cells were routinely maintained as adherent cell cultures in DMEM medium and containing 10% Fetal bovine serum (FBS; Gibco), 2 mM L-glutamine (Sigma-Aldrich), 100 U/mL penicillin G sodium (Sigma-Aldrich), 100 μg/mL streptomycin sulphate (Sigma-Aldrich) at 37° C. in a humidified air incubator containing 5% carbon dioxide (CO2). Cultivation of the cells was continued with direct monitoring every two or three days using a phase contrast microscope. The cells are harvested in 1× trypsin/EDTA solution (Sigma-Aldrich). Cells were passages 1:3-1:5 at a density around 5-6·10^4 cells/mL, while the passage was re-suspended repeatedly.
(§8) Methods of determining cell growth, cell viability, maximal non-toxic concentration (MNC) and concentrations, required cell viability by 50% (CC50): Cell viability was estimated by a modification of the MTT [3-(4,5-dimethylthiazol-2-yl)-2,5-diphenyltetrazolium bromide] assay; see literature reference 12. The MTT reduction assay is one of the most frequently used methods for measuring cell proliferation and cytotoxicity. The intensity of colour (measured spectrophotometrically) of the MTT formazan produced by living, metabolically active cells by measuring the activity of succinate dehydrogenase, mostly located in mitochondria was proportional to the number of live cells present. MTT was a yellow water-soluble tetrazolium dye that was reduced by live, but not dead cells to a purple formazan product that was insoluble in aqueous solutions.
(§9) Each cell line was plated at an appropriate density (7.5·10^3 cells/well for L20B cell culture and 4·10^4 cells/well for L929 cell culture) in 96-well plates (Costar Corning; USA) for 24 h. […]

L929 = assay: as above; type: cell-based
Description: as §1, §2, §3, §4, §5, §6, §7, §8, §9

[2] = MTT cytotoxicity / cell survival in murine fibroblast line L20B; type: cell-based; details: mouse; L20B, 48 h; read-out: CC50 (cytotoxic concentration for 50% cells)
Description: as §1, §2, §3, §4, §5, §6, §7, §8, §9

L20B = assay: as above; type: cell-based
Description: as §1, §2, §3, §4, §5, §6, §7, §8, §9

[3] = tested on: mucus production in the airway; assay: OVA model: airway mucus production (PAS staining); type: in vivo, Balb/c mice; details: vs mice that received no treatment; 1 2 mg/kg therapeutically or preventively, beclomethasone 1 mg/kg
Description: Enhanced airway mucus production results from airway inflammation and is hallmark of allergic asthma. Thus, mechanisms that suppress immune responses in the lung could result in suppression of mucus production. Mucus production was measured 2 days after i.n. challenge in experimental mice that were treated with compound 1 or beclomethasone (as standard) and lung sections were stained with periodic acid-Schiff stain (PAS). Mucus production in the lung was quantitated immunohistologically by evaluation of mucus-positive epithelia. […]
Mucus production was measured 2 days after i.n. challenge in experimental mice that were treated with compound 1 or beclomethasone (as standard) and lung sections were stained with PAS. Mucus production in the lung was quantitated immunohistologically by evaluation of mucus-positive epithelia.

O=c1oc2cc(O)cc(O)c2c(O)c1-c1coc2c1c(=O)oc1cc(O)cc(O)c12 [Compound 1, 7,9-dihydroxy-3-(4,5,7-trihydroxy-2-oxo-2H-chromene-3-yl)-4H-furo[3,2-c]chromen-4-one]
CC50 at 48 h [1]: 10 mM
Cell survival, cell culture L929 (L929; 0.0001 mg/mL of 1, 48 h): 100.6%
Cell survival, cell culture L929 (L929; 0.001 mg/mL of 1, 48 h): 98.8%
Cell survival, cell culture L929 (L929; 0.01 mg/mL of 1, 48 h): 95.3%
Cell survival, cell culture L929 (L929; 0.05 mg/mL of 1, 48 h): 87.1%
Cell survival, cell culture L929 (L929; 0.1 mg/mL of 1, 48 h): 89.3%
Cell survival, cell culture L929 (L929; 0.5 mg/mL of 1, 48 h): 83.2%
Cell survival, cell culture L929 (L929; 1 mg/mL of 1, 48 h): 76.1%
Cell survival, cell culture L929 (L929; 5 mg/mL of 1, 48 h): 64.9%
Cell survival, cell culture L929 (L929; 10 mg/mL of 1, 48 h): 50.5%
Cytotoxicity against L929 relative to L20B according to MNC values (L929; 48 h): 10 ×
Cytotoxicity against L929 versus L20B according to CC50 values (L929; 48 h): the same cytotoxicity
Cytotoxicity (overall, in words) (L929; L929, 48 h): low cytotoxicity
Typical cytopathology characterizing the toxic effect (microscopic morphology of monolayers) (L929; L929, 48 h, 0.0001-10 mg/mL): not registered
CC50 at 48 h [2]: 9 mM
Cell survival, cell culture L20B (L20B; 0.0001 mg/mL of 1, 48 h): 103.3%
Cell survival, cell culture L20B (L20B; 0.001 mg/mL of 1, 48 h): 99.7%
Cell survival, cell culture L20B (L20B; 0.01 mg/mL of 1, 48 h): 94.5%
Cell survival, cell culture L20B (L20B; 0.05 mg/mL of 1, 48 h): 91.3%
Cell survival, cell culture L20B (L20B; 0.1 mg/mL of 1, 48 h): 88.2%
Cell survival, cell culture L20B (L20B; 0.5 mg/mL of 1, 48 h): 85.6%
Cell survival, cell culture L20B (L20B; 1 mg/mL of 1, 48 h): 72.4%
Cell survival, cell culture L20B (L20B; 5 mg/mL of 1, 48 h): 60.2%
Cell survival, cell culture L20B (L20B; 10 mg/mL of 1, 48 h): 48.5%
Cytotoxicity (overall, in words) (L20B; L20B, 48 h): low cytotoxicity
Typical cytopathology characterizing the toxic effect (microscopic morphology of monolayers) (L20B; L20B, 48 h, 0.0001-10 mg/mL): not registered
Mucin production in the airway (PAS) [3]: significant reduction
